Reference: ChEMBL document CHEMBL1159236, “Venezenin: a new bioactive Annonaceous acetogenin from the bark of Xylopia aromatica” (J Nat Prod, 1995)
Values after ≈ are worked out from the molar mass of the structure shown.

Legend:
A549 = test: Cytotoxicity against human A549 cells after 7 hrs by MTT assay; type: functional; conditions: A549, 7 h, read-out: ED50 (the source's name)
MCF7 = test: Cytotoxicity against human MCF7 cells after 7 hrs by MTT assay; type: functional; conditions: for EC50: Homo sapiens, MCF7, 7 h, read-out: ED50 (the source's name)
HT-29 = test: Cytotoxicity against human HT-29 cells after 7 hrs by MTT assay; type: functional; conditions: for EC50: Homo sapiens, HT-29, 7 h, read-out: ED50 (the source's name)
[1] = Toxicity in brine shrimp; type: organism-based; conditions: artemia, in vivo
[2] = Inhibition of respiration in rat liver mitochondria assessed per mg of protein; type: functional

SMILES | EC50 (A549) [µg/mL] | EC50 (MCF7) [µg/mL] | EC50 (HT-29) [µg/mL] | LC50 [1] [µg/mL] | ED50 (MCF7) [×10⁻⁵ ug/ml] | ED50 (HT-29) [×10⁻⁴ ug/ml] | IC50 [2] [µM]
CCCCCCCCCCCC/C=C\CC[C@H]1OC(C)(C)O[C@@H]1CCCCCCC(=O)CCCCC[C@@H](O)CC1=C[C@H](C)OC1=O | < 0.001 | 0.347 (≈ 0.536 µM) | 0.932 (≈ 1.44 µM) | – | – | – | –
CCCCCCCCCCCC[C@H](O)[C@@H]1CC[C@@H]([C@@H](O)CCCCCCC(=O)CCCCC[C@@H](O)CC2=C[C@H](C)OC2=O)O1 | 0.00786 (≈ 0.0126 µM) | – | – | 0.84 (≈ 1.35 µM) | 7.47 | 3.46 | 1.7
CCCCCCCCCCCC/C=C\CC[C@@H](O)[C@H](O)CCCCCCC(O)CCCCC[C@@H](O)CC1=C[C@H](C)OC1=O (stereo partly drawn) | < 0.001 | 0.0572 (≈ 0.0939 µM) | 2.62 (≈ 4.3 µM) | – | – | – | –
CCCCCCCCCCCC[C@H](O)[C@@H]1CC[C@H]([C@H](O)CCCCCCC(=O)CCCCC[C@@H](O)CC2=C[C@H](C)OC2=O)O1 | 0.0045 (≈ 0.00722 µM) | 0.056 (≈ 0.0899 µM) | 0.047 (≈ 0.0755 µM) | 0.98 (≈ 1.57 µM) | – | – | –
COc1cccc2c1C(=O)c1c(O)c3c(c(O)c1C2=O)C[C@@](O)(C(=O)CO)C[C@@H]3O[C@H]1C[C@H](N)[C@H](O)[C@H](C)O1 [DOXORUBICIN] | 0.0092 (≈ 0.0169 µM) | 0.23 (≈ 0.423 µM) | 0.0392 (≈ 0.0721 µM) | – | – | – | –
C=C(C)[C@H]1Cc2c(ccc3c2O[C@@H]2COc4cc(OC)c(OC)cc4[C@@H]2C3=O)O1 [ROTENONE] | – | – | – | – | – | – | 34
CCCCCCCCCCCC/C=C\CC[C@@H](O)[C@H](O)CCCCCCC(=O)CCCCC[C@@H](O)CC1=C[C@H](C)OC1=O [VENEZENIN] | 0.0108 (≈ 0.0178 µM) | < 0.01 | 1.58 (≈ 2.6 µM) | 9.33 (≈ 15.4 µM) | – | – | –
